Reference: PMC8786148, “The effects of magainin 2-derived and rationally designed antimicrobial peptides on Mycoplasma pneumoniae” (PLoS ONE, 2022)
Marks after values point to notes of the source that are not given here.

How the values were obtained:
[1] = system: Mycoplasma pneumoniae M129-B7; assay: Colorimetric and biofilm assays, strain M129-B7; format: cell-based; details: strain M129-B7; biofilm assay; p < 0.005
[2] = system: M. pneumoniae strains FH, M52, Mac, Bru, and M129-B7; assay: Propidium iodide (PI) uptake assay, membrane disruption; format: cell-based, Mycoplasma pneumoniae; details: 10 μmol/L AMP, PI 5 μg/mL in PBS, triplicate
Protocol: We performed the PI uptake assays based on the previously described method with modification for M. pneumoniae. M. pneumoniae strains FH, M52, Mac, Bru, and M129-B7 were cultured as described above. Briefly, the 90 mL culture was done in PPLO-based medium for 6 days to observe the medium color change from red to yellow. The mycoplasma in the culture medium was centrifuged at 11,740g for 30 min at 4°C, and the precipitation was suspended in 20 mL phosphate buffered saline (PBS) by passing through a 60 mm-length 25-gauge needle (Top Corporation, Tokyo, Japan) three times. The suspension was centrifuged again at 11,740g for 30 min at 4°C, and 2.25 mL PBS was added to the precipitation. The 2× mycoplasma suspension was prepared by passing through a 60 mm-length 25-gauge needle five times. When using heat-killed M. pneumoniae (HKMp), the 2× suspension was heated at 95°C for 10 min. The 2× PI assay reaction mix based on PBS containing 20 μmol/L of an antimicrobial peptide or saline, and 10 μg/mL PI (Dojindo, Tokyo, Japan). Each assay was performed with a 96-well black flat-bottomed plate (PerkinElmer, Waltham, MA, USA) using a final cell volume of 100 μL prepared by mixing 2× mycoplasma suspension and 2× PI assay reaction mix at 1:1 in volume ratio. The intercalation fluorescence of PI was measured by using an Infinite 200 Pro F Plex microplate reader (Tecan, Zürich, Switzerland) every 2 min, with an excitation filter at 535 nm (half width: 25 nm) and an emission filter at 620 nm (half width: 20 nm). The averages and standard deviations of the fluorescent intensities was calculated, and normalised by an average fluorescence between 10 and 20 min of HKMp as 100% relative fluorescence, and by a minimum average fluorescence between 0 and 20 min of whole data as 0% relative fluorescence.

[3] = system: Staphylococcus aureus; set-up: method as in PMID 28789896, PMID 31303986, PMID 33369262; details: previously reported; cited from earlier work
[4] = system: Staphylococcus epidermidis; set-up: method as in PMID 28789896, PMID 31303986, PMID 33369262; details: previously reported; cited from earlier work
[5] = system: Escherichia coli; set-up: method as in PMID 28789896, PMID 31303986, PMID 33369262; details: previously reported; cited from earlier work
[6] = system: Pseudomonas aeruginosa; set-up: method as in PMID 28789896, PMID 31303986, PMID 33369262; details: previously reported; cited from earlier work
[7] = system: Mycoplasma pneumoniae FH; assay: Killing assay, strain FH; details: 30 μmol/L AMP, 3 days; for Killing assay result compared with saline: Welch's t test, p < 0.005; for Cell numbers (CFU/mL) after treatment with antimicrobial peptides, killing assay: initial 10^6 CFU/mL, triplicate, mean, saline 3.59×10^6
[8] = system: Mycoplasma pneumoniae Bru; assay: Killing assay, strain Bru; details: AMP 30 μmol/L, 3 days, initial 10^6 CFU/mL, triplicate, mean, saline 3.48×10^6
[9] = system: Mycoplasma pneumoniae Mac; assay: Killing assay, strain Mac; details: AMP 30 μmol/L, 3 days, initial 10^6 CFU/mL, triplicate, mean, saline 4.19×10^6
[10] = system: Mycoplasma pneumoniae M52; assay: Killing assay, strain M52; details: AMP 30 μmol/L, 3 days, initial 10^6 CFU/mL, triplicate, mean, saline 3.62×10^6
[11] = system: Mycoplasma pneumoniae M129-B7; assay: Killing assay, strain M129-B7; details: AMP 30 μmol/L, 3 days, initial 10^6 CFU/mL, triplicate, mean, saline 3.79×10^6
[12] = system: Mycoplasma pneumoniae Bru; assay: Colorimetric and biofilm assays, strain Bru; details: biofilm assay, p < 0.005
[13] = system: Mycoplasma pneumoniae Mac; assay: Colorimetric and biofilm assays, strain Mac; details: biofilm assay, p < 0.005
[14] = system: Mycoplasma pneumoniae M52; assay: Colorimetric and biofilm assays, strain M52; details: up to 30 μmol/L, Shirley-Williams test
[15] = system: Mycoplasma pneumoniae FH; assay: Biofilm assay (crystal violet, absorbance at 550 nm), strain FH; details: initial 10^5 CFU/mL; for Concentration with statistically significant effect in the biofilm assay: 0% CO2, 6-8 days at 37°C, p < 0.005, Shirley-Williams test; for Effect in the biofilm assay: 0% CO2, up to 30 μmol/L
[16] = previously reported; cited from earlier work
[17] = system: Mycoplasma pneumoniae FH; assay: Colorimetric assay (absorbance at 560 nm), strain FH; details: initial 10^5 CFU/mL, 0% CO2, up to 30 μmol/L
[18] = five strains, read every 2 min up to 20 min
[19] = strains FH, M129-B7, and M52, up to 20 min

## H-GIKKFLKSZKKFVKZFK-NH2 [17base-Hybrid]
[1]
  Concentration with statistically significant effect in the biofilm assay: ≤ 30 µmol/L
[2]; [18]
  PI fluorescence compared with live Mp without peptide: the fluorescence arose
[3]
  MIC, Gram-positive, S. a.: 3.13 µmol/L
[4]
  MIC, Gram-positive, S. e: 1.56 µmol/L
[5]
  MIC, Gram-negative, E. c.: 3.13 µmol/L
[6]
  MIC, Gram-negative, P. a.: 3.13 µmol/L
[7]
  Killing assay result compared with saline: significant difference
  Cell numbers (CFU/mL) after treatment with antimicrobial peptides, killing assay: 3.50×10^5 CFU/mL
[8]
  Titre (CFU/mL), killing assay: 1.46×10^5 ^b CFU/mL
[9]
  Titre (CFU/mL), killing assay: 5.80×10^4 ^b CFU/mL
[10]
  Titre (CFU/mL), killing assay: 1.16×10^5 ^b CFU/mL
[11]
  Titre (CFU/mL), killing assay: 2.21×10^5 ^b CFU/mL
[12]
  Concentration with statistically significant effect in the biofilm assay: ≤ 30 µmol/L
[13]
  Concentration with statistically significant effect in the biofilm assay: ≤ 30 µmol/L
[14]
  Effect in the biofilm assay: slight drop of biofilm production
[15]
  Concentration with statistically significant effect in the biofilm assay: 8 µmol/L

## H-GIGKFLHSUKKFGKUFV-NH2 [17base-Aib]
[2]; [18]
  PI fluorescence compared with live Mp without peptide: slight fluorescent shift
[2]; [19]
  PI fluorescence compared with live Mp without peptide: fluorescence of live Mp without any peptides were higher
[3]
  MIC, Gram-positive, S. a.: 12.5 µmol/L
[4]
  MIC, Gram-positive, S. e: 3.13 µmol/L
[5]
  MIC, Gram-negative, E. c.: 3.13 µmol/L
[6]
  MIC, Gram-negative, P. a.: 1.56 µmol/L
[16]
  Haemolysis (concentration with haemolytic effect): >100 µmol/L
[7]
  Killing assay result compared with saline: limited influence on the growth
  Cell numbers (CFU/mL) after treatment with antimicrobial peptides, killing assay: 3.75×10^6 CFU/mL
[15]
  Effect in the biofilm assay: no difference

## H-KKKLAKLKLGAKLKLKGKLGA-NH2 [Random]
[2]; [18]
  PI fluorescence compared with live Mp without peptide: fluorescence of live Mp without any peptides were higher
[3]
  MIC, Gram-positive, S. a.: 100 µmol/L
[4]
  MIC, Gram-positive, S. e: 6.25 µmol/L
[5]
  MIC, Gram-negative, E. c.: 12.5 µmol/L
[6]
  MIC, Gram-negative, P. a.: 3.13 µmol/L
[7]
  Killing assay result compared with saline: limited influence on the growth
  Cell numbers (CFU/mL) after treatment with antimicrobial peptides, killing assay: 4.93×10^6 CFU/mL
[15]
  Effect in the biofilm assay: no difference

## H-GIGKFLHSAKKFGKAFVGEIMNS-NH2 [Mag2, magainin 2]
[2]; [18]
  PI fluorescence compared with live Mp without peptide: fluorescence of live Mp without any peptides were higher
[3]
  MIC, Gram-positive, S. a.: 100 µmol/L
[4]
  MIC, Gram-positive, S. e: 25 µmol/L
[5]
  MIC, Gram-negative, E. c.: 3.13 µmol/L
[6]
  MIC, Gram-negative, P. a.: 12.5 µmol/L
[7]
  Killing assay result compared with saline: limited influence on the growth
  Cell numbers (CFU/mL) after treatment with antimicrobial peptides, killing assay: 4.06×10^6 CFU/mL
[17]
  Effect in the colorimetric assay: no difference
[15]
  Concentration with statistically significant effect in the biofilm assay: 30 µmol/L

## H-GIGKFLHSZKKFGKZFV-NH2 [17base-Ac6c]
[2]; [18]
  PI fluorescence compared with live Mp without peptide: the fluorescence arose
[3]
  MIC, Gram-positive, S. a.: 3.13 µmol/L
[4]
  MIC, Gram-positive, S. e: 3.13 µmol/L
[5]
  MIC, Gram-negative, E. c.: 3.13 µmol/L
[6]
  MIC, Gram-negative, P. a.: 6.25 µmol/L
[16]
  Haemolysis (concentration with haemolytic effect): 3 µmol/L
[7]
  Killing assay result compared with saline: significant difference
  Cell numbers (CFU/mL) after treatment with antimicrobial peptides, killing assay: 1.11×10^6 CFU/mL
[15]
  Concentration with statistically significant effect in the biofilm assay: 30 µmol/L

## H-GIGKFLHSAKKFGKAFV-NH2 [Mag2-17base]
[2]; [18]
  PI fluorescence compared with live Mp without peptide: fluorescence of live Mp without any peptides were higher
[3]
  MIC, Gram-positive, S. a.: 50 µmol/L
[4]
  MIC, Gram-positive, S. e: 12.5 µmol/L
[5]
  MIC, Gram-negative, E. c.: 3.13 µmol/L
[6]
  MIC, Gram-negative, P. a.: 3.13 µmol/L
[16]
  Haemolysis (concentration with haemolytic effect): >100 µmol/L
[7]
  Killing assay result compared with saline: limited influence on the growth
  Cell numbers (CFU/mL) after treatment with antimicrobial peptides, killing assay: 4.86×10^6 CFU/mL
[15]
  Effect in the biofilm assay: no difference

## H-KLLKKAGKLLKKAGKLLKKAG-NH2 [Stripe]
[2]; [19]
  PI fluorescence compared with live Mp without peptide: fluorescence of live Mp without any peptides were higher
[3]
  MIC, Gram-positive, S. a.: 12.5 µmol/L
[4]
  MIC, Gram-positive, S. e: 1.56 µmol/L
[5]
  MIC, Gram-negative, E. c.: 3.13 µmol/L
[6]
  MIC, Gram-negative, P. a.: 1.56 µmol/L
[7]
  Killing assay result compared with saline: limited influence on the growth
  Cell numbers (CFU/mL) after treatment with antimicrobial peptides, killing assay: 3.71×10^6 CFU/mL
[15]
  Effect in the biofilm assay: no difference
